Measurements as given in ChEMBL document CHEMBL1201862, “PubChem BioAssay data set” (2004).
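Five compound concentrations were applied to cells in 96-well plates for 48 hours; endpoints were derived by simple linear interpolation of the resulting dose-response curve. At the GI50, growth is halved.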 Activity calls are given as the source filed them. No stated cut-off is given here; in the data, active = GI50 up to about 1.1 µM and inactive = higher.

Legend:
Assay in all cases: NCI-60 cell line screen, 48 h
IGROV-1 = system: IGROV-1
SK-MEL-28 = system: SK-MEL-28
COLO 205 = system: COLO 205
DLD-1 = system: DLD-1
ACHN = system: ACHN
NCI-H460 = system: NCI-H460
KM12 = system: KM12
SF-539 = system: SF-539
SR = system: SR
RXF 631 = system: RXF 631
XF498 = system: XF498
HCT-15 = system: HCT-15
LXFL 529 = system: LXFL 529
SK-MEL-5 = system: SK-MEL-5
K562 = system: K562
MOLT-4 = system: MOLT-4
U-251 = system: U-251
NCI-H226 = system: NCI-H226
M14 = system: M14
SK-OV-3 = system: SK-OV-3
SNB-75 = system: SNB-75
RXF 393 = system: RXF 393
NCI-H23 = system: NCI-H23
SN12C = system: SN12C
OVCAR-8 = system: OVCAR-8
CCRF-CEM = system: CCRF-CEM
M19-MEL = system: M19-MEL
TK-10 = system: TK-10
UO-31 = system: UO-31
SW-620 = system: SW-620
UACC-62 = system: UACC-62
HT-29 = system: HT-29
OVCAR-3 = system: OVCAR-3
HL-60 = system: HL-60
A549 = system: A549
SF-268 = system: SF-268
DMS-273 = system: DMS-273
LOX IMVI = system: LOX IMVI
SF-295 = system: SF-295
HCC 2998 = system: HCC 2998
Malme-3M = system: Malme-3M
DMS-114 = system: DMS-114
RPMI-8226 = system: RPMI-8226
OVCAR-4 = system: OVCAR-4
EKVX = system: EKVX
SNB-78 = system: SNB-78
786-0 = system: 786-0
SNB-19 = system: SNB-19
HOP-18 = system: HOP-18
OVCAR-5 = system: OVCAR-5
HOP-92 = system: HOP-92
UACC-257 = system: UACC-257
KM-20L2 = system: KM-20L2
HCT-116 = system: HCT-116
NCI-H522 = system: NCI-H522
SK-MEL-2 = system: SK-MEL-2
HOP-62 = system: HOP-62
CAKI-1 = system: CAKI-1
A498 = system: A498

## N#CC1(C2CC(=O)N(c3ccccc3)C2=O)CCCCC1=O (stereo not given)
IGROV-1
  GI50: > 100 µM (inactive)
SK-MEL-28
  GI50: > 100 µM (inactive)
COLO 205
  GI50: > 100 µM (inactive)
DLD-1
  GI50: > 100 µM (inactive)
ACHN
  GI50: > 100 µM (inactive)
NCI-H460
  GI50: > 100 µM (inactive)
KM12
  GI50: > 100 µM (inactive)
SF-539
  GI50: > 100 µM (inactive)
SR
  GI50: > 100 µM (inactive)
RXF 631
  GI50: > 100 µM (inactive)
XF498
  GI50: 9.2 µM (inactive)
HCT-15
  GI50: > 100 µM
LXFL 529
  GI50: > 100 µM (inactive)
SK-MEL-5
  GI50: > 100 µM (inactive)
K562
  GI50: > 100 µM (inactive)
MOLT-4
  GI50: > 100 µM (inactive)
U-251
  GI50: > 100 µM (inactive)
NCI-H226
  GI50: > 100 µM (inactive)
M14
  GI50: > 100 µM (inactive)
SK-OV-3
  GI50: > 100 µM (inactive)
SNB-75
  GI50: > 100 µM (inactive)
RXF 393
  GI50: > 100 µM (inactive)
NCI-H23
  GI50: > 100 µM (inactive)
SN12C
  GI50: 0.791 µM (active)
OVCAR-8
  GI50: > 100 µM (inactive)
CCRF-CEM
  GI50: > 100 µM (inactive)
M19-MEL
  GI50: > 100 µM (inactive)
TK-10
  GI50: > 100 µM (inactive)
UO-31
  GI50: > 100 µM (inactive)
SW-620
  GI50: > 100 µM (inactive)
UACC-62
  GI50: > 100 µM (inactive)
HT-29
  GI50: > 100 µM (inactive)
OVCAR-3
  GI50: > 100 µM (inactive)
HL-60
  GI50: > 100 µM (inactive)
A549
  GI50: > 100 µM (inactive)
SF-268
  GI50: > 100 µM (inactive)
DMS-273
  GI50: > 100 µM (inactive)
LOX IMVI
  GI50: > 100 µM (inactive)
SF-295
  GI50: > 100 µM (inactive)
HCC 2998
  GI50: 0.104 µM (active)
Malme-3M
  GI50: 0.498 µM (active)
DMS-114
  GI50: > 100 µM (inactive)
RPMI-8226
  GI50: > 100 µM (inactive)
OVCAR-4
  GI50: > 100 µM (inactive)
EKVX
  GI50: > 100 µM (inactive)
SNB-78
  GI50: > 100 µM (inactive)
786-0
  GI50: > 100 µM (inactive)
SNB-19
  GI50: > 100 µM (inactive)
HOP-18
  GI50: > 100 µM (inactive)
OVCAR-5
  GI50: > 100 µM (inactive)

## NC(=O)c1csc(C2C=CC(CO)O2)n1 (stereo not given)
HOP-92
  GI50: > 100 µM (inactive)
IGROV-1
  GI50: > 100 µM (inactive)
SK-MEL-28
  GI50: > 100 µM (inactive)
COLO 205
  GI50: > 100 µM (inactive)
UACC-257
  GI50: > 100 µM (inactive)
ACHN
  GI50: > 100 µM (inactive)
NCI-H460
  GI50: > 100 µM (inactive)
KM-20L2
  GI50: > 100 µM (inactive)
KM12
  GI50: > 10 µM (inactive)
HCT-116
  GI50: > 100 µM (inactive)
SF-539
  GI50: > 100 µM (inactive)
RXF 631
  GI50: > 100 µM (inactive)
XF498
  GI50: > 100 µM (inactive)
HCT-15
  GI50: > 100 µM
LXFL 529
  GI50: > 100 µM (inactive)
K562
  GI50: > 100 µM (inactive)
NCI-H522
  GI50: > 100 µM (inactive)
MOLT-4
  GI50: > 100 µM (inactive)
U-251
  GI50: > 100 µM (inactive)
NCI-H226
  GI50: > 100 µM (inactive)
M14
  GI50: > 100 µM (inactive)
SK-OV-3
  GI50: > 100 µM (inactive)
NCI-H23
  GI50: > 100 µM (inactive)
SN12C
  GI50: > 100 µM (inactive)
OVCAR-8
  GI50: > 100 µM (inactive)
CCRF-CEM
  GI50: > 100 µM (inactive)
TK-10
  GI50: > 100 µM (inactive)
UO-31
  GI50: > 100 µM (inactive)
SW-620
  GI50: > 100 µM (inactive)
UACC-62
  GI50: > 100 µM (inactive)
HT-29
  GI50: > 100 µM (inactive)
OVCAR-3
  GI50: > 10 µM (inactive)
HL-60
  GI50: > 100 µM (inactive)
A549
  GI50: > 100 µM (inactive)
SF-268
  GI50: > 100 µM (inactive)
DMS-273
  GI50: > 100 µM (inactive)
LOX IMVI
  GI50: > 100 µM (inactive)
SK-MEL-2
  GI50: > 100 µM (inactive)
SF-295
  GI50: > 10 µM (inactive)
HCC 2998
  GI50: > 100 µM (inactive)
Malme-3M
  GI50: > 100 µM (inactive)
DMS-114
  GI50: > 100 µM (inactive)
RPMI-8226
  GI50: > 100 µM (inactive)
HOP-62
  GI50: > 100 µM (inactive)
OVCAR-4
  GI50: > 100 µM (inactive)
EKVX
  GI50: > 100 µM (inactive)
SNB-78
  GI50: > 100 µM (inactive)
CAKI-1
  GI50: > 100 µM (inactive)
786-0
  GI50: > 100 µM (inactive)
SNB-19
  GI50: > 100 µM (inactive)
A498
  GI50: > 100 µM (inactive)
HOP-18
  GI50: > 100 µM (inactive)
OVCAR-5
  GI50: > 100 µM (inactive)

## C=C(C(=C)P(=S)(C(C)C)C(C)C)P(=S)(C(C)C)C(C)C
HOP-92
  GI50: > 100 µM (inactive)
IGROV-1
  GI50: > 100 µM (inactive)
SK-MEL-28
  GI50: > 100 µM (inactive)
COLO 205
  GI50: > 100 µM (inactive)
UACC-257
  GI50: > 100 µM (inactive)
DLD-1
  GI50: > 100 µM (inactive)
ACHN
  GI50: > 100 µM (inactive)
NCI-H460
  GI50: > 100 µM (inactive)
KM-20L2
  GI50: > 100 µM (inactive)
KM12
  GI50: > 100 µM (inactive)
HCT-116
  GI50: > 100 µM (inactive)
SF-539
  GI50: > 100 µM (inactive)
SR
  GI50: > 100 µM (inactive)
RXF 631
  GI50: > 100 µM (inactive)
XF498
  GI50: > 100 µM (inactive)
HCT-15
  GI50: > 100 µM
LXFL 529
  GI50: > 100 µM (inactive)
SK-MEL-5
  GI50: > 100 µM (inactive)
K562
  GI50: > 100 µM (inactive)
NCI-H522
  GI50: > 100 µM (inactive)
MOLT-4
  GI50: > 100 µM (inactive)
U-251
  GI50: > 100 µM (inactive)
NCI-H226
  GI50: > 100 µM (inactive)
M14
  GI50: > 100 µM (inactive)
SK-OV-3
  GI50: > 100 µM (inactive)
SNB-75
  GI50: > 100 µM (inactive)
RXF 393
  GI50: > 100 µM (inactive)
NCI-H23
  GI50: > 100 µM (inactive)
SN12C
  GI50: > 100 µM (inactive)
OVCAR-8
  GI50: > 100 µM (inactive)
CCRF-CEM
  GI50: > 100 µM (inactive)
M19-MEL
  GI50: > 100 µM (inactive)
TK-10
  GI50: > 100 µM (inactive)
UO-31
  GI50: > 100 µM (inactive)
SW-620
  GI50: > 100 µM (inactive)
UACC-62
  GI50: > 100 µM (inactive)
HT-29
  GI50: > 100 µM (inactive)
OVCAR-3
  GI50: > 100 µM (inactive)
HL-60
  GI50: > 100 µM (inactive)
A549
  GI50: > 100 µM (inactive)
SF-268
  GI50: > 100 µM (inactive)
DMS-273
  GI50: > 100 µM (inactive)
LOX IMVI
  GI50: > 100 µM (inactive)
SF-295
  GI50: > 100 µM (inactive)
HCC 2998
  GI50: > 100 µM (inactive)
Malme-3M
  GI50: > 100 µM (inactive)
DMS-114
  GI50: > 100 µM (inactive)
RPMI-8226
  GI50: > 100 µM (inactive)
HOP-62
  GI50: > 100 µM (inactive)
OVCAR-4
  GI50: > 100 µM (inactive)
EKVX
  GI50: > 100 µM (inactive)
SNB-78
  GI50: > 100 µM (inactive)
CAKI-1
  GI50: > 100 µM (inactive)
786-0
  GI50: > 100 µM (inactive)
SNB-19
  GI50: > 100 µM (inactive)
A498
  GI50: > 100 µM (inactive)
OVCAR-5
  GI50: > 100 µM (inactive)
